Assay results: PubChem BioAssay AID1963851 (Molecular Pharmacology Branch, DTP, NCI, 2024)
“And” between values parts separate entries of the source, which are not always exact repeats. Equal values may be shown once.

System: 188146-221-R-J1-PDC complex spheroid viability
Test: Anticancer human tumor 188146-221-R-J1-PDC patient-derived colon adenocarcinoma cell line growth inhibition [POLQ]
Settings: for viability, T/C: stronger effect = lower value
Description: Multicellular complex tumor spheroid response to Polymerase (POL) inhibitors (novobiocin, ART-558, RP6685) in combination with a variety of drugs and investigational agents in selected tumor cell lines
The POL inhibitors (novobiocin, ART-558, and RP6685) were evaluated both individually and in combination with standard of care and investigational anticancer small molecules within a complex spheroid model of solid tumors. . Complex spheroids include a stromal component modeled by human endothelial cells (HUVEC) and fibroblasts modeled by human mesenchymal stem cells (MSCs). The concentration ranges selected for each drug and investigational agent were based upon clinically achievable concentrations if the clinical Cmax of the agent was known.
Compounds. The drugs and investigational agents: novobiocin (NSC847541), ART-558 (NSC835418), RP-6685 (NSC848927), peposertib (NSC802822), ceralasertib (NSC780249), elimusertib (NSC800525), camonsertib (NSC841442), AZD-1390 (NSC803789), olaparib (NSC753686), talazoparib (NSC767125), rucaparib (NSC756644), sotorasib (NSC818433), MRTX-1133 (NSC836407), SN-38 (NSC673596), topotecan (NSC609699), epotoside (NSC141540), doxorubicin (NSC123127), gemcitabine (NSC613327), 5-fluorouracil (NSC19893), paclitaxel (NSC125973), vemurafenib (NSC761431), MSA-2 (NSC828583), SN-011 (NSC837082), adavosertib (NSC754352), prexasertib (NSC758257), carboplatin (NSC241240) and oxaliplatin (NSC266046), were obtained from the National Cancer Institute (NCI) Developmental Therapeutics Program Chemical Repository (21). The FDA-approved anticancer drug set is available from the Developmental Therapeutics Program at https://dtp.cancer.gov/organization/dscb/obtaining/. […] The stock solutions were prepared in dimethyl sulfoxide (DMSO, Sigma-Aldrich, St. Louis, MO, cat. D2650), except for the platinum compounds which were prepared in saline (Quality Biological, Gaithersburg, MD, cat. 114-055-101), at 800-fold the tested concentration and stored at -70 degrees C prior to their use. All drugs and investigational agents were tested over a range starting from a high concentration at or near the clinical Cmax and decreasing in half-log increments. If the clinical Cmax for an agent had not been determined, the highest concentration tested was 10 microM, except for SN-38, which was tested at a high concentration of 1 microM.
Cell Culture. All cells were maintained in an incubator at 37 degrees C and 5% CO2 with 95% humidity. The PDC lines were cultured according to standard operating procedures established by the NCI PDMR (https://pdmr.cancer.gov). Table 3 of the manuscript, lists the cell lines along with the number of the three cell types plated to form the mct-spheroids and media for tumor cell growth. After thawing, all PDC lines, except 997537-175-T-J1-PDC and 415267-285-R-J2-PDC, were cultured in Matrigel-coated flasks prepared with a working solution of 1X Ham's F-12 nutrient mix, without supplementation (Thermo Fisher Scientific, cat. 11765054), 100 U/mL penicillin-streptomycin (Thermo Fisher Scientific, cat. 15140122), and 2.5% Matrigel (Corning Inc., Corning, NY, cat. 354248) for the first three passages. The two PDC lines 997537-175-T-J1-PDC and 415267-285-R-J2-PDC were cultured on uncoated flasks. The 857933-349-R-J2-PDC line was cultured in 6C/Colon 1B media containing advanced DMEM/F-12 (Thermo Fisher Scientific, cat. 12634028), 10 mM HEPES (Thermo Fisher Scientific, cat. 15630080), 1X GlutaMAX supplement (Thermo Fisher Scientific, cat. 35050061), 0.1 mg/mL primocin (InvivoGen, San Diego, CA, cat. ant-pm-2), 10% defined fetal bovine serum, heat inactivated (HyClone Laboratories Inc., Logan, UT, cat. SH30070.03HI), 50% L-WRN conditioned media (ATCC, cat. CRL-3276), 1.25 mM N-Acetyl-L-cysteine (Sigma-Aldrich, cat. A9165), 10 mM nicotinamide (Sigma-Aldrich, cat. N0636), 1X B-27 supplement (Thermo Fisher Scientific, cat. 17504044), 1X N-2 supplement (Thermo Fisher Scientific, cat. […]
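Further: spheroids exposed to compounds for seven days.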
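Wherever viability, T/C is given: 100% = DMSO vehicle control viability.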

## CC[C@@]1(O)C(=O)OCc2c1cc1n(c2=O)Cc2cc3c(CN(C)C)c(O)ccc3nc2-1
Compound 0.000316 µM
  viability, T/C: 101% and 91.4% and 104%
Compound 0.001 µM
  viability, T/C: 99.7% and 100% and 110%
Compound 0.00316 µM
  viability, T/C: 87.8% and 92.4% and 88.8%
Compound 0.01 µM
  viability, T/C: 103% (2×) and 107%
Compound 0.0316 µM
  viability, T/C: 101% and 92.7% and 97.3%
Compound 0.1 µM
  viability, T/C: 71.1% and 63.3% and 63.1%
Curve of compound
  IC50: > 0.1 µM

## CNCc1ccc(-c2[nH]c3cc(F)cc4c3c2CCNC4=O)cc1 + Cc1cccc(N(C)C(=O)C2C(O)CCN2c2nc(C)cc(C(F)(F)F)c2C#N)c1
Curve of first compound, second compound 0.0316 µM
  IC50: > 10 µM
Curve of first compound, second compound 0.1 µM
  IC50: > 10 µM
Curve of first compound, second compound 0.316 µM
  IC50: > 10 µM
Curve of first compound, second compound 1 µM
  IC50: > 10 µM
Curve of first compound, second compound 3.16 µM
  IC50: > 10 µM
Curve of first compound, second compound 10 µM
  IC50: > 10 µM
Second compound 0.0316 µM, first compound 0.0316 µM
  viability, T/C: 98.6%
Second compound 0.0316 µM, first compound 0.1 µM
  viability, T/C: 103%
Second compound 0.0316 µM, first compound 0.316 µM
  viability, T/C: 101%
Second compound 0.0316 µM, first compound 1 µM
  viability, T/C: 97.3%
Second compound 0.0316 µM, first compound 3.16 µM
  viability, T/C: 114%
Second compound 0.0316 µM, first compound 10 µM
  viability, T/C: 105%
Second compound 0.1 µM, first compound 0.0316 µM
  viability, T/C: 108%
Second compound 0.1 µM, first compound 0.1 µM
  viability, T/C: 98.6%
Second compound 0.1 µM, first compound 0.316 µM
  viability, T/C: 102%
Second compound 0.1 µM, first compound 1 µM
  viability, T/C: 104%
Second compound 0.1 µM, first compound 3.16 µM
  viability, T/C: 108%
Second compound 0.1 µM, first compound 10 µM
  viability, T/C: 112%
Second compound 0.316 µM, first compound 0.0316 µM
  viability, T/C: 112%
Second compound 0.316 µM, first compound 0.1 µM
  viability, T/C: 105%
Second compound 0.316 µM, first compound 0.316 µM
  viability, T/C: 106%
Second compound 0.316 µM, first compound 1 µM
  viability, T/C: 103%
Second compound 0.316 µM, first compound 3.16 µM
  viability, T/C: 106%
Second compound 0.316 µM, first compound 10 µM
  viability, T/C: 108%
Second compound 1 µM, first compound 0.0316 µM
  viability, T/C: 109%
Second compound 1 µM, first compound 0.1 µM
  viability, T/C: 103%
Second compound 1 µM, first compound 0.316 µM
  viability, T/C: 97.7%
Second compound 1 µM, first compound 1 µM
  viability, T/C: 109%
Second compound 1 µM, first compound 3.16 µM
  viability, T/C: 100%
Second compound 1 µM, first compound 10 µM
  viability, T/C: 110%
Second compound 3.16 µM, first compound 0.0316 µM
  viability, T/C: 112%
Second compound 3.16 µM, first compound 0.1 µM
  viability, T/C: 112%
Second compound 3.16 µM, first compound 0.316 µM
  viability, T/C: 95.1%
Second compound 3.16 µM, first compound 1 µM
  viability, T/C: 84.1%
Second compound 3.16 µM, first compound 3.16 µM
  viability, T/C: 112%
Second compound 3.16 µM, first compound 10 µM
  viability, T/C: 110%
Second compound 10 µM, first compound 0.0316 µM
  viability, T/C: 99.4%
Second compound 10 µM, first compound 0.1 µM
  viability, T/C: 83.2%
Second compound 10 µM, first compound 0.316 µM
  viability, T/C: 100%
Second compound 10 µM, first compound 1 µM
  viability, T/C: 93.8%
Second compound 10 µM, first compound 3.16 µM
  viability, T/C: 106%
Second compound 10 µM, first compound 10 µM
  viability, T/C: 101%
